# Test results as given in patent publication US5308856A, “Thiazolidine-2,4-dione derivatives, salts and preparation processes thereof” (Kyorin Pharmaceutical Co., Ltd., priority 1991, dated 1994).
# What was measured:
# [1] = system: blood glucose; experiment: Improvement of Glucose Tolerance in Genetically Obese Mice (OGTT); format: in vivo, Genetically obese mice (CS57BL ob/ob mice); settings: ob/ob mice, fasted 18 h, glucose 2 g/kg p.o.
# Description: Improvement of Glucose Tolerance in Genetically Obese Mice
# Genetically obese mice (CS57BL ob/ob mice) were orally administered with the compound of Example 1 once daily for 5 days at 10, 30 or 100 mg/kg/day, respectively. They were fasted for 18 hours and then 2 g/kg of glucose was orally administered. Blood samples were collected from the tail vein 0, 30, 60 and 120 minutes after the administration of glucose for the determination of blood glucose (Table 2).
# [2] = biological target: T1, aldose reductase extracted from rat lens (Rattus norvegicus, UniProt P07943); experiment: Inhibition of Aldose Reductase in Vitro; format: biochemical
# T1 construct: aldose reductase extracted from rat lens; from tissue; host or cells: rat lens
# Source text: Inhibition of Aldose Reductase in Vitro
# According to the method of Hyman and Kinoshita (J. Biol. Chem., 240, 877, 1965), inhibitory activity of the compound of Example 23 on aldose reductase extracted from rat lens was investigated. As a result, the following IC50 value was obtained (Table 3).
# [3] = system: blood glucose; experiment: Enhancement of Insulin Sensitivity in Rats; format: in vivo; settings: 10 mg/kg/day p.o. once daily 5 days, fasted 18 h, insulin 0.1 unit/kg i.p., n = 5, *P < 0.01, reference (insulin only) 11.0 ± 0.8
# Description: Enhancement of Insulin Sensitivity in Rats
# After rats were orally administered with the compound of Example 1 once daily for 5 days at 10 mg/kg/day, they were fasted for 18 hours and then insulin was intraperitoneally injected at 0.1 unit/kg. Blood samples were collected from the tail vein 0 and 1 hour after the injection of insulin for the determination of blood glucose (Table 1).
structure (smiles),measurement,setting,value
"O=C1NC(=O)C(c2ccc(N3Cc4ccccc4C3=O)cc2)S1 (centres unmarked) [Example 1, 5-(4-(1-Oxoisoindoline-2-yl)Phenyl)Thiazolidine-2,4-Dione]",OGTT (% of control),[1]; 10 mg/kg/day p.o. once daily 5 days,98.2 % of control
same,OGTT (% of control),[1]; 30 mg/kg/day p.o. once daily 5 days,84.1 % of control
same,OGTT (% of control),[1]; 100 mg/kg/day p.o. once daily 5 days,81.1 % of control
same,IC50,[2],90 nM
same,0 hour value-1 hour value (blood glucose),[3],23.0 ± 1.2 mg %
